For orientation: inhibition means the share of the control response that was lost under treatment. Usually half-life stands for the time needed for the level to fall by half in the phase considered. What is called IC50 is the concentration at which inhibition is half-maximal.

Eleven compounds from patent publication US20130252930A1 (BIOMARIN PHARMACEUTICAL INC., priority 2010, published 2013) can be followed below.

Each structure is given as a SMILES string. Read-outs that look alike come from different tables or passages of the source.

Series [1] has as its target T1, CYP17 (human testicular microsome) (Homo sapiens, UniProt P05093).
T1 construct: using microsomal fraction from human testis (Celsis Cat #S00110) as the enzyme source; tissue Celsis S00110; host or cells: human testis microsomal fraction
T1 sequence (P05093 1-508): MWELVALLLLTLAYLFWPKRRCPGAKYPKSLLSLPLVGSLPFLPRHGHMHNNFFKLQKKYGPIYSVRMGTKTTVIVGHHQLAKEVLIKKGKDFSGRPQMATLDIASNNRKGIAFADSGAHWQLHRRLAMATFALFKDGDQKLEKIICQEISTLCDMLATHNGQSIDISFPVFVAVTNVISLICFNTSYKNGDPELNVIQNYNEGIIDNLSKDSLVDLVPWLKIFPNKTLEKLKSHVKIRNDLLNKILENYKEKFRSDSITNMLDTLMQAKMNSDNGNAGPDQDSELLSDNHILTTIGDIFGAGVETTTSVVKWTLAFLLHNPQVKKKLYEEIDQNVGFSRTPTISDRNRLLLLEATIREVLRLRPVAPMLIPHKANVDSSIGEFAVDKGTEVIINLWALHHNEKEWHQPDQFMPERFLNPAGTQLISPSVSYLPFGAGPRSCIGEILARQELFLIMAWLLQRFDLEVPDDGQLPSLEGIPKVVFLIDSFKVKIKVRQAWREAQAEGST
The experiment in a line: CYP17 enzymatic assay (% inhibition at 10 nM), version 1 (Biological Example 5). The class given is biochemical.

Series [2] concerns rat Cyp11B enzyme (rat adrenal mitochondria). The series is described as follows: CYP11B enzymatic assay (% inhibition at 100 nM) (Biological Example 9). The conditions noted are these: for CYP11B enzymatic assay % inhibition at 100 nM (Biological Example No. 9) / Biological Example No. 9: CYP11B enzymatic assay % inhibition at 100 nM: compound at 100 nM. The class given is biochemical. Here is the method:
Adrenals excised from Sprague Dawley rats were homogenized, and mitochondria fraction were prepared by a series of centrifugation as described in Shuji Ohno, et al. J. of Steroid Biochemistry & Molecular Biology 2002, 80, 355-363. Prepared mitochondria protein was washed and resuspended in Buffer B (0.21 M mannitol, 70 mM sucrose, 5 mM MgCl2, 0.5 mM CaCl2, 20 mM Tris-HCl (pH 7.4) and 1 mM DTT, […]). The protein concentration was determined by BCA assay and stored as 10 μL aliquots at −80° C.
The rat Cyp11B enzyme assay was performed in 96-well plates. Typical assays were carried out in total 50 μL volume that included test compounds at 100 nM concentration, 1× Buffer B, 0.5 mM NADPH, 0.1 μM 11-deoxycortisol, and 2 μL of prepared rat adrenal mitochondria (added last). Reaction without test compound served as positive control and reaction without NADPH served as negative control. Reactions were allowed to incubate at 37° C. for 60 min with gentle shaking. The reaction was stopped by directly applying the enzymatic reaction mixture (1:5 diluted in ELISA assay buffer) to ELISA plate for evaluation of cortisol concentration according to manufacturer's protocol (Assay Design).
The mean absorbance value for each sample was used to determine the corresponding concentration from the standard curve. Amount of cortisol in the negative control (reaction that dis not include NADPH) was subtracted from total cortisol. Percent inhibition (inhibition %) of the compound was calculated using normalized cortisol concentration based on following formula: 100−([Cortisol] of compound/[Cortisol] of positive control *100).

A short description of series [3]: Human liver microsome stability assay (Biological Example 8b). Particulars: liver microsomes, pH 7.4. In general terms: Microsomes from liver hold many membrane-bound enzymes, among them those of drug oxidation.
Method: The reaction was started with addition of excess NADPH (5 mg/mL, 15 μL in 0.1 M potassium phosphate buffer, 1.0 mM EDTA, pH 7.4), the total volume is 45 μL (compound final concentration was 1 μM). […] 50 μL of the supernatant was transferred from each well into a 96-well sample plate containing 50 μL of ultra-pure water (Millipore) for LC-MS/MS analysis.
Series [4] has as its target T1, CYP17 (human testicular microsome). The series is described as follows: CYP17 enzymatic assay (IC50) (Biological Example 4). The class given is biochemical. Particulars: human testicular microsome.
For series [5] the target is unchanged. The series is described as follows: CYP17 enzymatic assay (% inhibition at 1 nM) (Biological Example 12). Format: biochemical. Particulars: compound at 1 nM.
Where [6] appears, read: compound at 10 nM, read-out: CYP17 enzymatic assay % inhibition at 10 nM (Biological Example No. 5).
[7] abbreviates: read-out: CYP17 enzymatic assay IC50 (Biological Example No. 4).
[8] abbreviates: read-out: CYP17 enzymatic assay % inhibition at 1 nM (Biological Example No. 12).
[9] abbreviates: read-out: Biological Example No. 12: CYP17 enzymatic assay % inhibition at 1 nM.

In the case of `CC(=O)O[C@H]1CC[C@@]2(C)C(=CC[C@H]3C4=CC=C(c5cccnc5)[C@@]4(C)CC[C@@H]32)C1` [Compound 78, (3S,10R,13S)-10,13-dimethyl-17-(pyridin-3-yl)-2,3,4,7,8,9,10,11,12,13-decahydro-1H-cyclopenta[a]phenanthren-3-yl acetate], the inhibition at 0.01 µM in series [1] (10 nM compound, DHEA by ELISA, read-out: Biological Example No. 5: CYP17 percent inhibition at 10 nM (version 1)) is 1 to 50%. Further, the “Biological Example No. 9: CYP11B percent inhibition at 100 nM” value in series [2] (100 nM compound, cortisol by ELISA) is “U (U means the compound had a percent inhibition of greater than or equal to 32%)”.

In turn, `CN1C(=O)CCC[C@@]2(C)C1=CCC1C2CC[C@]2(C)C(c3cccnc3)=CCC12` (stereo partly drawn) [Compound 180, (5aR,7aS)-1,5a,7a-trimethyl-8-(pyridin-3-yl)-3,4,5,5a,5b,6,7,7a,10,10a,10b,11-dodecahydrocyclopenta[5,6]naphtho[2,1-b]azepin-2(1H)-one] yielded a half-life at 1 μM in series [3] of 1 to 50 min. In series [1] (setting [6]), the inhibition at 0.01 µM is greater than 80%. Besides, the half-maximal inhibitory concentration (IC50) in series [4] (setting [7]) is less than 0.011 µM. The “CYP11B enzymatic assay % inhibition at 100 nM (Biological Example No. 9)” value in series [2] is “U (U means the compound had a percent inhibition of greater than or equal to 32%)”.

With `COc1cncc(C2=CCC3C4CC=C5N(C)C(=O)CCC[C@]5(C)C4CC[C@]23C)c1` (stereo partly drawn) [Compound 181, (5aR,7aS)-8-(5-methoxypyridin-3-yl)-1,5a,7a-trimethyl-3,4,5,5a,5b,6,7,7a,10,10a,10b,11-dodecahydrocyclopenta[5,6]naphtho[2,1-b]azepin-2(1H)-one], the half-life at 1 μM in series [3] lay within 1 to 50 min. Moreover, the inhibition at 0.01 µM in series [1] (setting [6]) was greater than 80%. In addition, the “CYP11B enzymatic assay % inhibition at 100 nM (Biological Example No. 9)” value in series [2] was “U (U means the compound had a percent inhibition of greater than or equal to 32%)”.

Take `Cc1cncc(C2=CCC3C4CC=C5N(C)C(=O)CCC[C@]5(C)C4CC[C@]23C)c1` (stereo partly drawn) [Compound 182, (5aR,7aS)-1,5a,7a-trimethyl-8-(5-methylpyridin-3-yl)-3,4,5,5a,5b,6,7,7a,10,10a,10b,11-dodecahydrocyclopenta[5,6]naphtho[2,1-b]azepin-2(1H)-one]: in series [1] (setting [6]), the inhibition at 0.01 µM was 50 to 80%. In addition, the “CYP11B enzymatic assay % inhibition at 100 nM (Biological Example No. 9)” value in series [2] is given as “U (U means the compound had a percent inhibition of greater than or equal to 32%)”.

For `CN1C(=O)CC[C@@]2(C)C1=CC[C@@H]1[C@@H]2CC[C@]2(C)C(n3ccnc3)=CC[C@@H]12` [Compound 183, (4aR,6aS)-7-(1H-imidazol-1-yl)-1,4a,6a-trimethyl-4,4a,4b,5,6,6a,9,9a,9b,10-decahydro-1H-indeno[5,4-f]quinolin-2(3H)-one], in series [1] (setting [6]), the inhibition at 0.01 µM was in the range of 50 to 80%. Moreover, the “CYP11B enzymatic assay % inhibition at 100 nM (Biological Example No. 9)” value in series [2] was “U (U means the compound had a percent inhibition of greater than or equal to 32%)”.

In the case of `CN1C(=O)C[C@@]2(C)C1=CCC1C2CC[C@]2(C)C(c3cccnc3)=CCC12` (stereo partly drawn) [Compound 185, (3aR,5aS)-1,3a,5a-trimethyl-6-(pyridin-3-yl)-3,3a,3b,4,5,5a,8,8a,8b,9-decahydroindeno[5,4-e]indol-2(1H)-one], in series [4] (setting [7]), the IC50 was less than 0.011 µM. The inhibition at 0.001 µM in series [5] (setting [8]) was greater than 50%. In series [2], the “CYP11B enzymatic assay % inhibition at 100 nM (Biological Example No. 9)” value is on record as “U (U means the compound had a percent inhibition of greater than or equal to 32%)”.

Regarding `COc1cncc(C2=CCC3C4CC=C5N(C)C(=O)C[C@]5(C)C4CC[C@]23C)c1` (stereo partly drawn) [Compound 187, (3aR,5aS)-6-(5-methoxypyridin-3-yl)-1,3a,5a-trimethyl-3,3a,3b,4,5,5a,8,8a,8b,9-decahydroindeno[5,4-e]indol-2(1H)-one], in series [3], the half-life at 1 μM was in the range of 1 to 50 min. Also, the 50% inhibitory concentration (IC50) in series [4] (setting [7]) was less than 0.011 µM. For the same compound, the inhibition at 0.001 µM in series [5] (setting [8]) is greater than 50%. Moreover, the “CYP11B enzymatic assay % inhibition at 100 nM (Biological Example No. 9)” value in series [2] was “T (T means the compound had a percent inhibition of less than 32% when tested at 100 nM)”.

On to `CN1C(=O)CC[C@@]2(C)C1=CC[C@@H]1[C@@H]2CC[C@]2(C)C(n3cncc3C#N)=CC[C@@H]12` [Compound 433, 1-((4aR,6aS)-1,4a,6a-trimethyl-2-oxo-2,3,4,4a,4b,5,6,6a,9,9a,9b,10-dodecahydro-1H-indeno[5,4-f]quinolin-7-yl)-1H-imidazole-5-carbonitrile], for which the inhibition at 0.001 µM in series [5] (setting [9]) was less than 10%. Also, the “Biological Example No. 9: CYP11B enzymatic assay % inhibition at 100 nM” value in series [2] is listed as “T (T means the compound had a percent inhibition of less than 32% when tested at 100 nM)”.

For `C[C@]12CCCN(S(C)(=O)=O)CC1CC[C@@H]1[C@@H]2CC[C@]2(C)C(n3ccnc3)=CC[C@@H]12` (stereo partly drawn) [Compound 437, (5aR,7aS)-8-(1H-imidazol-1-yl)-5a,7a-dimethyl-2-(methylsulfonyl)-1,2,3,4,5,5a,5b,6,7,7a,10,10a,10b,11,12,12a-hexadecahydrocyclopenta[5,6]naphtho[2,1-c]azepine], the IC50 in series [4] (read-out: Biological Example No. 4: CYP17 enzymatic assay IC50) is greater than 0.025 µM. Further, the “Biological Example No. 9: CYP11B enzymatic assay % inhibition at 100 nM” value in series [2] is recorded as “U (U means the compound had a percent inhibition of greater than or equal to 32%)”.

Turning to `CC(=O)N1CCC[C@@]2(C)[C@@H](CC[C@@H]3[C@@H]2CC[C@]2(C)C(n4ccnc4)=CC[C@@H]32)C1` [Compound 443, 1-((5aR,5bS,7aS,10aS,10bR,12aR)-8-(1H-imidazol-1-yl)-5a,7a-dimethyl-3,4,5,5a,5b,6,7,7a,10,10a,10b,11,12,12a-tetradecahydrocyclopenta[5,6]naphtho[2,1-c]azepin-2(1H)-yl)ethanone], the inhibition at 0.001 µM in series [5] (setting [8]) lay within 10 to 50%. For the same compound, in series [2], the “CYP11B enzymatic assay % inhibition at 100 nM (Biological Example No. 9)” value is “U (U means the compound had a percent inhibition of greater than or equal to 32%)”.

In the case of `COC(=O)c1cncn1C1=CCC2C3CC=C4C[C@@H](O)CC[C@]4(C)C3CC[C@]12C` (stereo partly drawn) [Compound 476, methyl 1-((3S,10R,13S)-3-hydroxy-10,13-dimethyl-2,3,4,7,8,9,10,11,12,13,14,15-dodecahydro-1H-cyclopenta[a]phenanthren-17-yl)-1H-imidazole-5-carboxylate], in series [5] (setting [9]), the inhibition at 0.001 µM lay in the range of 10 to 50%. Also, the “Biological Example No. 9: CYP11B enzymatic assay % inhibition at 100 nM” value in series [2] is listed as “na (“na” means the compound was not active under the conditions tested)”.
